Results published in BindingDB's records for PubMed 9536032 (Sibia Neurosciences, 1998).
Where “and” joins values, the source holds several entries; their conditions need not be identical. Equal values may be shown once.

Experiments:
Glutamate receptor 3 [1] = target: Glutamate receptor 3 (Homo sapiens, UniProt P42263)
Glutamate receptor 3 [2] = target: Glutamate receptor 3 (Rattus norvegicus, UniProt P19492)
Sequence of Glutamate receptor 3 (Rattus norvegicus, UniProt P19492) (P19492 whole entry): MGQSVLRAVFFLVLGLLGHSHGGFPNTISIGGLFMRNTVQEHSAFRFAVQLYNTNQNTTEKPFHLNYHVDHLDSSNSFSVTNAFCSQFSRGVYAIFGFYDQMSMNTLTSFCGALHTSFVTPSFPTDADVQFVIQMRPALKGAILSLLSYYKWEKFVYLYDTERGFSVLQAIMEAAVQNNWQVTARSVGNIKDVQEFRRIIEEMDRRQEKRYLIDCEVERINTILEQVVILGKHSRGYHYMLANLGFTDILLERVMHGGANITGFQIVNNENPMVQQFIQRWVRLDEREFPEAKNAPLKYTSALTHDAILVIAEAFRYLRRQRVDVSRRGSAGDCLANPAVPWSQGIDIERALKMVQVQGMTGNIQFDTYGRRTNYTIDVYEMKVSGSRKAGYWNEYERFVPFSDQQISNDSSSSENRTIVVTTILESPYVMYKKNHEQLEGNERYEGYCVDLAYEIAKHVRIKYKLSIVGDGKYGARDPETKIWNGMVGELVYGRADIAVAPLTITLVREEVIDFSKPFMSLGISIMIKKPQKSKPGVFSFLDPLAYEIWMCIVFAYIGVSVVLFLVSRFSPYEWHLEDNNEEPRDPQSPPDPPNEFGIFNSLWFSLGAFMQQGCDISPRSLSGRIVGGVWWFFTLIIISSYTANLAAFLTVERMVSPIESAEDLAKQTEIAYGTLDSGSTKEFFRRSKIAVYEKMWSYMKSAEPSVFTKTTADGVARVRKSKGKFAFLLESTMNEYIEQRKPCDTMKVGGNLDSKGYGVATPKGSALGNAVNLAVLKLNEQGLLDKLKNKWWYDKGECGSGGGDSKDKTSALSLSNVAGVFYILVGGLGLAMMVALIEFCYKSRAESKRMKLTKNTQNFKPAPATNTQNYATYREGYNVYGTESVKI

Sequence of Glutamate receptor 3 (Homo sapiens, UniProt P42263) (P42263 whole entry): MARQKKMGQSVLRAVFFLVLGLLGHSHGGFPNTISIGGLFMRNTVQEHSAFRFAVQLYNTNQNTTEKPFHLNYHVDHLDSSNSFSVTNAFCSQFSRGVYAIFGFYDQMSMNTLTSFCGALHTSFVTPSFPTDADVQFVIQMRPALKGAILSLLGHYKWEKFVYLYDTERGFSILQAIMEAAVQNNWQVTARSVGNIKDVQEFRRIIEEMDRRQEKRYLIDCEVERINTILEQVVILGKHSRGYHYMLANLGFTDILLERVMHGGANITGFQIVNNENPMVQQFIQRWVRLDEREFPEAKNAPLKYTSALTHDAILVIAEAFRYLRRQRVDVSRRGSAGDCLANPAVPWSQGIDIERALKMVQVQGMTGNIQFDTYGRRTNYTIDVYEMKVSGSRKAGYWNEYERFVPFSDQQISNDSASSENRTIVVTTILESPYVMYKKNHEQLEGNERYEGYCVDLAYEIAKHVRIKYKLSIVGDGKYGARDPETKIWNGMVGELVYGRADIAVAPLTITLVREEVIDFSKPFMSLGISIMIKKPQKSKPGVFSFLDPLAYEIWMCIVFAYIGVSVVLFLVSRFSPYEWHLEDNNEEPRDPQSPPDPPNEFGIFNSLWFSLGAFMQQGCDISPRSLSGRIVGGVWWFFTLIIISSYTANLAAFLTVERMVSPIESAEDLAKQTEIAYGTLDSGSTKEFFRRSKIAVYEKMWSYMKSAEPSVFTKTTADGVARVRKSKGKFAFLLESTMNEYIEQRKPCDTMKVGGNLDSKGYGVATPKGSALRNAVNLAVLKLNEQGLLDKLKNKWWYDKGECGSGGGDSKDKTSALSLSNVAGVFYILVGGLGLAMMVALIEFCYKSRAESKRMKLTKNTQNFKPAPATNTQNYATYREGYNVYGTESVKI

| SMILES | Ki (Glutamate receptor 3 [1]) | Ki (Glutamate receptor 3 [2]) |
| --- | --- | --- |
| NC(CCC(=O)NCS(=O)(=O)O)C(=O)O (centres undefined) [CAS_90237-02-8] | > 10 µM | > 10 µM |
| C=C(C)[C@H]1CN[C@H](C(=O)O)[C@H]1CC(=O)O [Digensaeure] | 2.63 µM and 8.05 µM |  |
| CC(C)[C@H](NC(=O)[C@H](CCCCN)NC(=O)[C@@H](Cc1c[nH]c2ccccc12)NC(=O)[C@H](Cc1ccc(O)cc1)NC(=O)[C@H](CS)NC(=O)[C@H](N)Cc1ccc2ccccc2c1)C(=O)N[C@@H](CS)C(=O)N[C@@H](Cc1ccc2ccccc2c1)C(N)=O [Dnal,Cys,Tyr,DTrp,Lys,Val,Cys,Nal-nh2] | 0.494 µM |  |
| O=C1N=c2cc(N(O)O)c(-n3ccnc3)cc2=NC1=O [CAS_3035216] | 0.63 µM and 2.45 µM and 1.96 µM | 0.407 µM |
| N#Cc1cc2nc(O)c(O)nc2cc1[N+](=O)[O-] [7-Cyano-3-hydroxy-6-nitro-quinoxalin-2-ol anion] |  | 0.47 µM |
| Cc1onc(OCC(=O)O)c1CC(N)C(=O)O (centres undefined) [2-Amino-3-(3-carboxymethoxy-5-methyl-isoxazol-4-yl)-propionic acid(AMOA)] | > 10 µM | > 10 µM |
| O=C1N=c2c3c(ccc2=C1NO)C([N+](=O)[O-])CCC3 (centres undefined) [NSC_5311098] | > 10 µM | > 10 µM |
| CC1=NN=C(c2ccc(N)cc2)c2cc3c(cc2C1)OCO3 [GYKI-52466] | > 10 µM | > 10 µM |
| C/C(=C\C=C\[C@@H](C)C(=O)O)[C@H]1CN[C@H](C(=O)O)[C@H]1CC(=O)O | 2.77 µM and 4.59 µM | 3.54 µM |
| O=C1N=c2cc([N+](=O)[O-])c([N+](=O)[O-])cc2=NC1=O [NSC_3140] | 2.09 µM and 1.66 µM |  |
| CN1Cc2c(S(=O)(=O)N(C)C)cc3c(c2C1)NC(=O)C3N=O (centres undefined) | 1.43 µM and > 10 µM and 8.45 µM | 0.782 µM |
| N[C@@H](Cn1cc(F)c(=O)[nH]c1=O)C(=O)O [(S)-5-Fluorowillardiine] |  | 0.018 µM |
